Measured values reported in PubChem BioAssay AID256 (DTP/NCI, 2004).
Inconclusive results and toxic doses are left out. How the source made its calls: active means survival T/C of 150% or more; inactive means T/C below 125% in these data.

Test system: CD2F1 mice, L1210 leukemia ip, survival T/C
Assay: NCI In Vivo Anticancer Drug Screen. Data for tumor model L1210 Leukemia (intraperitoneal) in CD2F1 (CDF1) mice
Conditions: endpoint: mean survival time, schedule: Q01DX009 (ip), higher = longer survival
Outline: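 Transplantable tumor in mice; compound-treated vs vehicle-treated groups. Read-out = treated/control ratio of the measured endpoint.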

Measured: T/C

CNc1nc(N(C)C)nc(N(C)C)n1
inactive: dose: 6.25 mg/kg/injection, vehicle: saline 97 % of control | dose: 6.25 mg/kg/injection, vehicle: water 107 % of control | dose: 12.5 mg/kg/injection, vehicle: saline 97 % of control | dose: 12.5 mg/kg/injection, vehicle: water 104 % of control | dose: 25.0 mg/kg/injection, vehicle: saline 100 % of control | dose: 25.0 mg/kg/injection, vehicle: water 104 % of control | dose: 50.0 mg/kg/injection, vehicle: saline 101 % of control | dose: 50.0 mg/kg/injection, vehicle: water 110 % of control | dose: 100.0 mg/kg/injection, vehicle: saline 111 % of control | dose: 100.0 mg/kg/injection, vehicle: water 119 % of control
